Data as given in ChEMBL document CHEMBL3991601, “The target landscape of clinical kinase drugs” (Science, 2017).
Calls of active or inactive are those of the source. For most assays here, no stated cut-off is given here; in the data, actives have a measured Kd and inactives only a lower limit.

Assays:
[1] = target: T1, Serine/threonine-protein kinase LATS1 (Homo sapiens, UniProt O95835)
T1 sequence (O95835 whole entry): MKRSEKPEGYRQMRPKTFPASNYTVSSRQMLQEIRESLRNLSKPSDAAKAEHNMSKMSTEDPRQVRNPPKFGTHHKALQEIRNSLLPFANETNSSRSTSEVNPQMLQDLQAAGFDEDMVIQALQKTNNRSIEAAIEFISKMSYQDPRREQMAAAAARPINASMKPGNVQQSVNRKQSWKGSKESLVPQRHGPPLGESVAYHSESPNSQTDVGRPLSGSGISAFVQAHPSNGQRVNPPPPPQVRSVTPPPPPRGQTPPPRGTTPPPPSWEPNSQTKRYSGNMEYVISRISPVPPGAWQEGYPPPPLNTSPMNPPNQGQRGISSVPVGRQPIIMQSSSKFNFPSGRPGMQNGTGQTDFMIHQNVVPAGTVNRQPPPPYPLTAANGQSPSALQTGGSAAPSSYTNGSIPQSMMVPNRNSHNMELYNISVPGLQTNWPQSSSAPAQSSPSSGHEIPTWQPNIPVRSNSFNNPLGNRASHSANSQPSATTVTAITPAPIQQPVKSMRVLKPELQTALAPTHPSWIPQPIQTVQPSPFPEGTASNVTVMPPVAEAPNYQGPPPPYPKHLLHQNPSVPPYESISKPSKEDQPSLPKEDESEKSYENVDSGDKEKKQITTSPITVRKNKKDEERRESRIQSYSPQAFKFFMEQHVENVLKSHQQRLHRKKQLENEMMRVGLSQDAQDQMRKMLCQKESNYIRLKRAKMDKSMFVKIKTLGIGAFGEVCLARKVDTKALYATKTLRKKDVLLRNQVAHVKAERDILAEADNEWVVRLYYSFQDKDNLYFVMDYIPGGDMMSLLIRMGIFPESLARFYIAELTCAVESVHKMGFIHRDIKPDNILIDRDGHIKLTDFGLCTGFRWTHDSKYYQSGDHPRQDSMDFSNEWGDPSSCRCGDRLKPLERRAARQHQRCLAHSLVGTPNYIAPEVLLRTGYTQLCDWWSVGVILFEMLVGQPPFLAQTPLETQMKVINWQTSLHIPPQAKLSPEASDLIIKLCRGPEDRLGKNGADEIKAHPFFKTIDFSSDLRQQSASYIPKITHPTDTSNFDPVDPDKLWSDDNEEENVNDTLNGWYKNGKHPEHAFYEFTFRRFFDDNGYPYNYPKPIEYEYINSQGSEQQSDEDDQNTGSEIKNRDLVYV

[2] = target: T2, Cysteine--tRNA ligase, cytoplasmic (Homo sapiens, UniProt P49589)
T2 sequence (P49589 whole entry): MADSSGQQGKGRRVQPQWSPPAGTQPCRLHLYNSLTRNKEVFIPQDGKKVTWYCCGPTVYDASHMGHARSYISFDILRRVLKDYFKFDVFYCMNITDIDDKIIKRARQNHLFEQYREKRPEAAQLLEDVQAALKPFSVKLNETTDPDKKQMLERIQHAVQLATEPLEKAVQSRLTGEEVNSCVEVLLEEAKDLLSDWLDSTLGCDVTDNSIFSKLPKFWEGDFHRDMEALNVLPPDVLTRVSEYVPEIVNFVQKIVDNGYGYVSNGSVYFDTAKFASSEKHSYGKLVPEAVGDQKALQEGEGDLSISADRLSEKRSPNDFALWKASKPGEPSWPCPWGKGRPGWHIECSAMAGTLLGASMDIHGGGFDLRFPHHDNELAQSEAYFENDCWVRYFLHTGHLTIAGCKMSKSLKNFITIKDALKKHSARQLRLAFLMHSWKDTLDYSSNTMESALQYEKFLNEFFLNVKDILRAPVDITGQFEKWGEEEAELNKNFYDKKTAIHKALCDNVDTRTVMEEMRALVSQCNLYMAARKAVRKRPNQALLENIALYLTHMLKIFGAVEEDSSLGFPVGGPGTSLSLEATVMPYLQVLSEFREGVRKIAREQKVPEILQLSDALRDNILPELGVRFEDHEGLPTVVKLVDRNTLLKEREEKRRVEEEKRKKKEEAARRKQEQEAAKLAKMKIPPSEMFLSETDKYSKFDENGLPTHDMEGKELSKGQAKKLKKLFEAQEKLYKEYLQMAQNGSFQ

[3] = target: T3, Serine/threonine-protein kinase STK11 (Homo sapiens, UniProt Q15831)
T3 sequence (Q15831 whole entry): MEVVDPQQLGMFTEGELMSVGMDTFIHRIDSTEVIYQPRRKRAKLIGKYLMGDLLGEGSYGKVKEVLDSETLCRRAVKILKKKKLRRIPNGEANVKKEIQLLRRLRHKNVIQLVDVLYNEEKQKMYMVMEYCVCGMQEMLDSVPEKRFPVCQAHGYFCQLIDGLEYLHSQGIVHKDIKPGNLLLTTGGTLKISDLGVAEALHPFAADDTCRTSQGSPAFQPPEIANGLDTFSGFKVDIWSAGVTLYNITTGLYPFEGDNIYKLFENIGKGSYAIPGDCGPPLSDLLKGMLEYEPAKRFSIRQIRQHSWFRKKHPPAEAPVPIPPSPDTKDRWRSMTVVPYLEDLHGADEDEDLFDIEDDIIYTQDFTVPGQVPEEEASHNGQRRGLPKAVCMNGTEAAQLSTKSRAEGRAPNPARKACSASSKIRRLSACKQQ

[4] = target: Tyrosine-protein kinase ABL1 (Homo sapiens, UniProt P00519)
Tyrosine-protein kinase ABL1, sequence (P00519 whole entry): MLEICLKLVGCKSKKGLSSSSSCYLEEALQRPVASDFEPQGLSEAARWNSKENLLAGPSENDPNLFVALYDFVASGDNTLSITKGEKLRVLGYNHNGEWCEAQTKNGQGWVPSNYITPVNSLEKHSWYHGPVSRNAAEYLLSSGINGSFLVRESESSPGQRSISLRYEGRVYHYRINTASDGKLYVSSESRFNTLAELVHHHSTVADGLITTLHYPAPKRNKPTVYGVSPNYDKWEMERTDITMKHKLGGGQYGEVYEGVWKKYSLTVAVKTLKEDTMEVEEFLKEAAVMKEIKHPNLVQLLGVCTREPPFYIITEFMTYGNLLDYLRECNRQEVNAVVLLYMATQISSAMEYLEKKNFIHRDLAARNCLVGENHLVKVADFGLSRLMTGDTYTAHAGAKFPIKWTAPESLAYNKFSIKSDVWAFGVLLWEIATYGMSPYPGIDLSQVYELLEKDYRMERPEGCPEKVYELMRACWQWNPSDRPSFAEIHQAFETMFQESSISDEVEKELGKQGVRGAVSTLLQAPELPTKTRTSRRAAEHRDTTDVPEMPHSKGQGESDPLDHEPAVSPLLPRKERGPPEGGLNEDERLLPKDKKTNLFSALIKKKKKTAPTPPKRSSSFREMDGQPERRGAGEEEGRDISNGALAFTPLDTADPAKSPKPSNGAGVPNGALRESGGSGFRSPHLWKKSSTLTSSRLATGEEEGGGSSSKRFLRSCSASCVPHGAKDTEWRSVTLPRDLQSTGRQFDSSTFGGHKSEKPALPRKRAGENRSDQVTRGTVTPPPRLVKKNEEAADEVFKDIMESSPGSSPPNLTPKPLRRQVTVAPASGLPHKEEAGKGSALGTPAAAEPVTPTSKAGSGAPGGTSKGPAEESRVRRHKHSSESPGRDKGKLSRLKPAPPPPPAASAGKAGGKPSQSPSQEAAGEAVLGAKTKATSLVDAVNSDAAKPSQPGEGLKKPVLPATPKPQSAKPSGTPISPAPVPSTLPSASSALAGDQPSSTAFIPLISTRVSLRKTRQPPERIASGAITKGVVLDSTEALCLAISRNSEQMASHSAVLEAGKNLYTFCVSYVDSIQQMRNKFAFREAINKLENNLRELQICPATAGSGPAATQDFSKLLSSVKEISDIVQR

[5] = target: Tyrosine-protein kinase Lck (Homo sapiens, UniProt P06239)
Tyrosine-protein kinase Lck, sequence (P06239 whole entry): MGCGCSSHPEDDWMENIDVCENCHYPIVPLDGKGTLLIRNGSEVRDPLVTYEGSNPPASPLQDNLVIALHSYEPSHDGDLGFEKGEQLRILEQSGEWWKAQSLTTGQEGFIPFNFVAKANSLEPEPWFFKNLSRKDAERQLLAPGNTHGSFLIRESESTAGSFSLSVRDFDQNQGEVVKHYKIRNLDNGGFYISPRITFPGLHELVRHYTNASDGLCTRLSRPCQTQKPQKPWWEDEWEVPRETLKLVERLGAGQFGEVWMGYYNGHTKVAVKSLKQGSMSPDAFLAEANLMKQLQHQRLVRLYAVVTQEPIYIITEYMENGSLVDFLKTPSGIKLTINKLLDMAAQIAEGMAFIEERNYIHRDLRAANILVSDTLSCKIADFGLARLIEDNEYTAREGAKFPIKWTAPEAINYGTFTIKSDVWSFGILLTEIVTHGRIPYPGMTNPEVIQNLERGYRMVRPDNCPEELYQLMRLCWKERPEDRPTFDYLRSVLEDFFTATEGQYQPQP

[6] = target: Tyrosine-protein kinase Fer (Homo sapiens, UniProt P16591)
Tyrosine-protein kinase Fer, sequence (P16591 whole entry): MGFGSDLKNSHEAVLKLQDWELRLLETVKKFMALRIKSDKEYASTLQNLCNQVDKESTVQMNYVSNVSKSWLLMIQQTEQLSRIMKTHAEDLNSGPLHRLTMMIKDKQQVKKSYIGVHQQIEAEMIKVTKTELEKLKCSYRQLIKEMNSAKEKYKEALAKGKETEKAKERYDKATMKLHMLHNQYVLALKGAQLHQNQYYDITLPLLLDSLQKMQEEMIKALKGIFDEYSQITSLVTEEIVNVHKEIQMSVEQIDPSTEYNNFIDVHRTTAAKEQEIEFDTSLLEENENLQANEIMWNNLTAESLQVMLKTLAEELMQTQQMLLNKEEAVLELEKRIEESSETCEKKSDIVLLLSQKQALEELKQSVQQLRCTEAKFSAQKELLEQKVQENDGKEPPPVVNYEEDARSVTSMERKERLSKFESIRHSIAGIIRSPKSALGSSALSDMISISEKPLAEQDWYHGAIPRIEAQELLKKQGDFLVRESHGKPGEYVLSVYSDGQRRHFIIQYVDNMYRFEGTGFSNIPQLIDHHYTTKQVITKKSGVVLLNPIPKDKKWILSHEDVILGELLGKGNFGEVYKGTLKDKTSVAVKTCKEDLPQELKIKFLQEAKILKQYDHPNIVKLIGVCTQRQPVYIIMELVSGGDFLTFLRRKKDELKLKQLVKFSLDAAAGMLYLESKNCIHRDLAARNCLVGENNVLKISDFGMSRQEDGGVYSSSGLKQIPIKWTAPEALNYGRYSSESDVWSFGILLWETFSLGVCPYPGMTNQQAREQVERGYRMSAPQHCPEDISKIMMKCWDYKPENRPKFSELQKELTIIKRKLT

[7] = target: T4, Electron transfer flavoprotein subunit beta (Homo sapiens, UniProt P38117)
T4 sequence (P38117 whole entry): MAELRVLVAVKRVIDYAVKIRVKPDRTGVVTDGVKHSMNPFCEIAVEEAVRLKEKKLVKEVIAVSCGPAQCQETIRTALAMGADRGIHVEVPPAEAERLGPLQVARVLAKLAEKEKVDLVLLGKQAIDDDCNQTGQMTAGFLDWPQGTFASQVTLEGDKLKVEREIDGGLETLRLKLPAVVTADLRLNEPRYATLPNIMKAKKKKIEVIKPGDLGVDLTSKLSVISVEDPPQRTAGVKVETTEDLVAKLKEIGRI

Compound | Kd [1] | Kd [2] | Kd [3] | Kd [4] | Kd [5] | Kd [6] | Kd [7]
CC[C@@H]1C(=O)N(C)c2cnc(Nc3ccc(C(=O)N[C@H]4CC[C@H](N5CCN(CC6CC6)CC5)CC4)cc3OC)nc2N1C(C)C [VOLASERTIB] | > 30 µM (inactive) | > 30 µM (inactive) | > 30 µM (inactive) | > 30 µM (inactive) | > 30 µM (inactive) | > 30 µM (inactive) | > 30 µM (inactive)
CN1CC[C@@H](c2c(O)cc(O)c3c(=O)cc(-c4ccccc4Cl)oc23)[C@@H]1CO | > 30 µM (inactive) | > 30 µM (inactive) | > 30 µM (inactive) | > 30 µM (inactive) | > 30 µM (inactive) | > 30 µM (inactive) | > 30 µM (inactive)
COC(=O)N[C@@H](C)CNc1nccc(-c2cn(C(C)C)nc2-c2cc(Cl)cc(NS(C)(=O)=O)c2F)n1 [ENCORAFENIB] | > 30 µM (inactive) | > 30 µM (inactive) | > 30 µM (inactive) | > 30 µM (inactive) | > 30 µM (inactive) | > 30 µM (inactive) | > 30 µM (inactive)
COCCNCc1ccc(-c2cc3nccc(Oc4ccc(NC(=S)NC(=O)Cc5ccc(F)cc5)cc4F)c3s2)nc1 [GLESATINIB] | > 30 µM (inactive) | > 30 µM (inactive) | > 30 µM (inactive) | 0.241 µM (active) | 0.092 µM (active) | > 30 µM (inactive) | > 30 µM (inactive)
CCS(=O)(=O)N1CC(CC#N)(n2cc(-c3ncnc4[nH]ccc34)cn2)C1 [BARICITINIB] | > 30 µM (inactive) | > 30 µM (inactive) | > 30 µM (inactive) | > 30 µM (inactive) | > 30 µM (inactive) | > 30 µM (inactive) | > 30 µM (inactive)
CO[C@H]1C[C@@H]2CC[C@@H](C)[C@@](O)(O2)C(=O)C(=O)N2CCCC[C@H]2C(=O)O[C@H]([C@H](C)C[C@@H]2CC[C@@H](OCCO)[C@H](OC)C2)CC(=O)[C@H](C)/C=C(\C)[C@@H](O)[C@@H](OC)C(=O)[C@H](C)C[C@H](C)/C=C/C=C/C=C/1C [EVEROLIMUS] | > 30 µM (inactive) | > 30 µM (inactive) | > 30 µM (inactive) | > 30 µM (inactive) | > 30 µM (inactive) | > 30 µM (inactive) | > 30 µM (inactive)
CCN1CCN(Cc2ccc(-c3cc4c(N[C@H](C)c5ccccc5)ncnc4[nH]3)cc2)CC1 [AEE-788] | > 30 µM (inactive) | > 30 µM (inactive) | > 30 µM (inactive) | 1.09 µM (active) | > 30 µM (inactive) | > 30 µM (inactive) | > 30 µM (inactive)
CC(=O)Nc1cccc(-n2c(=O)n(C3CC3)c(=O)c3c(Nc4ccc(I)cc4F)n(C)c(=O)c(C)c32)c1 [TRAMETINIB] | > 30 µM (inactive) | > 30 µM (inactive) | > 30 µM (inactive) | > 30 µM (inactive) | > 30 µM (inactive) | > 30 µM (inactive) | > 30 µM (inactive)
O=C(O)[C@]1(Cc2cccc(Nc3nccs3)n2)CC[C@@H](Oc2cccc(Cl)c2F)CC1 [MK-5108] | > 30 µM (inactive) | > 30 µM (inactive) | > 30 µM (inactive) | 0.062 µM (active) | > 30 µM (inactive) | 1.54 µM (active) | > 30 µM (inactive)
N[C@@H]1CCCN(c2c(/C=C3\SC(=O)NC3=O)cccc2-c2ccccc2)C1 | > 30 µM (inactive) | > 30 µM (inactive) | > 30 µM (inactive) | > 30 µM (inactive) | > 30 µM (inactive) | > 30 µM (inactive) | > 30 µM (inactive)
O=C(Nc1ccc(-c2ccnc(Nc3ccc(N4CCOCC4)cc3)n2)cc1)C1CCCN1 (stereo not given) [XL-019] | 3.79 µM (active) | > 30 µM (inactive) | > 30 µM (inactive) | > 30 µM (inactive) | > 30 µM (inactive) | > 30 µM (inactive) | > 30 µM (inactive)
O=C(c1ccc(F)c(F)c1Nc1ccc(I)cc1F)N1CC(O)([C@@H]2CCCCN2)C1 [COBIMETINIB] | > 30 µM (inactive) | > 30 µM (inactive) | > 30 µM (inactive) | > 30 µM (inactive) | > 30 µM (inactive) | > 30 µM (inactive) | > 30 µM (inactive)
C[C@@H]1CN(Cc2ccc(F)cc2)[C@@H](C)CN1C(=O)c1cc2c(C(=O)C(=O)N(C)C)cn(C)c2cc1Cl [TALMAPIMOD] | > 30 µM (inactive) | > 30 µM (inactive) | > 30 µM (inactive) | > 30 µM (inactive) | > 30 µM (inactive) | > 30 µM (inactive) | > 30 µM (inactive)
Cc1cc(-c2cc(O)ccc2Cl)cc2nnc(Nc3ccc(OCCN4CCCC4)cc3)nc12 | > 30 µM (inactive) | > 30 µM (inactive) | > 30 µM (inactive) | 0.002 µM (active) | 0.002 µM (active) | > 30 µM (inactive) | > 30 µM (inactive)
Cc1cc([C@@H](C)Nc2ccccc2C(=O)O)c2nc(N3CCOCC3)cc(=O)n2c1 [AZD-6482] | > 30 µM (inactive) | > 30 µM (inactive) | > 30 µM (inactive) | > 30 µM (inactive) | > 30 µM (inactive) | > 30 µM (inactive) | > 30 µM (inactive)
